Common to all, as to type: cell-based
Test [1] addresses T1, Brd2 (Homo sapiens, UniProt P25440). Nature of the test: Time-dependent BET degradation, immunoblot, HEK293 cells. Also noted: endogenous in cells; host or cells: HEK293. Particulars: HEK293, Brd2, 1 μM, timecourse 0-8 h. As to the method: (§1) Cell culture. HeLa (CCL-2) and HEK293 (CRL-1573) cells were purchased from ATCC and cultured in DMEM medium (Gibco) supplemented with 10% FBS, 100 μg/mL penicillin/streptomycin and L-glutamine. Cells were grown at 37° C. and 5% CO2, and were kept no longer than 30 passages. All cell lines were routinely tested for mycoplasma contamination using MycoAlert kit from Lonza.
(§2) Immunoblotting. proteins were separated by SDS-PAGE on NuPage 4-12% Bis-Tris gels, followed by transfer to Amersham Protran 0.45 NC nitrocellulose membrane (GE Healthcare) using wet transfer. Membranes were blocked using 5% w/v milk in Tris-buffered saline (TBS) with 0.1% Tween-20. Blots were probed (overnight at 4° C.) using anti-Brd2 (Abcam ab139690, 1:2,000 dilution), anti-Brd3 (Abcam ab50818, 1:500 dilution), and anti-Brd4 (Abcam ab128874, 1:1,000 dilution) primary antibodies, as appropriate. The next day, blots were washed with TBST and incubated (1 hr at RT) with anti-Tubulin hFAB-rhodamine (BioRad, 12004166) primary antibody, and either anti-rabbit IRDye 800CW (Licor 1:10,000 dilution) or anti-mouse IRDye 800CW (Licor 1:10,000 dilution) secondary antibody. Blots were developed using a Bio-Rad ChemiDoc MP Imaging System, and band quantification was performed using Image Studio software (LiCor). Band intensities were normalized to the tubulin loading control and reported as % of the average 0.1% DMSO vehicle intensity. Degradation data was plotted and analysed using Prism (Graphpad, version 8).
(§3) HeLa (3×10^5) and HEK293 (0.5×10^6) cells were seeded in standard 6-well plates (2 mL medium) overnight before treatment with compounds at 1 μM concentration, with a final DMSO concentration of 0.1% v/v. After incubation for the desired time (0-8 h), cells were washed with DPBS (Gibco) and lysed using 85 μL RIPA buffer (Sigma-Aldrich) supplemented with cOmplete Mini EDTA-free protease inhibitor cocktail (Roche) and benzonase. Lysates were clarified by centrifugation (20,000 g, 10 min, 4° C.) and the total protein content of the supernatant was quantified using a Bradford colorimetric assay. Samples were prepared using equal amounts of total protein and LDS sample buffer (Invitrogen).
(§4) Representative blots in FIG. 4 show depletion of Brd2, Brd3 and Brd4 protein levels following 1 μM treatment at various time points with representative compounds. Band intensities were normalized to the β-tubulin loading control and reported as % of the average 0.1% DMSO vehicle intensity, with each point representing mean±SEM of two independent experiments (n=2). Degradation data was plotted and analysed using Prism (Graphpad, version 8).
(§5) T½ (h) is the time required to deplete 50% of the protein relative to DMSO
Background: In western blotting, separated proteins are transferred to a membrane and probed.

For test [2], the target named is T2, Brd3 (Homo sapiens, UniProt Q15059). The test is described as above. Also noted: endogenous in cells; host or cells: HEK293. Particulars: HEK293, Brd3, 1 μM, timecourse 0-8 h. As to the method:
as §1, §2, §3, §4, §5

Test [3] addresses T3, Brd4 (L) (Homo sapiens, UniProt O60885).
T3 construct: endogenous in cells; host or cells: HEK293, HeLa
Description: Concentration-dependent BET degradation, immunoblot, HeLa cells. Particulars: 6 h treatment, 1 nM-10 μM; for Dmax: read-out: Dmax (%) maximum degradation observed. Here is the method:
as §1, §2
as §3, with “(5×10^5)” for “(3×10^5)”, “(1×10^6)” for “(0.5×10^6)”, “the desired concentration (1 nM-10 μM),” for “1 μM concentration,”, “6 h treatment time,” for “incubation for the desired time (0-8 h),”, “(20,000g,” for “(20,000 g,”, “(Invitrogen.” for “(Invitrogen).”
(§6) Representative blots in FIG. 3 show depletion of Brd2, Brd3 and Brd4 protein levels following treatment with increasing concentrations of representative compounds. Band intensities were normalized to the β-tubulin loading control and reported as % of the average 0.1% DMSO vehicle intensity, with each point representing mean±SEM of two independent experiments (n=2). Degradation data was plotted and analysed using Prism (Graphpad, version 8)

The target of test [4] is T4, Brd4 (S) (Homo sapiens, UniProt O60885).
T4 construct: endogenous in cells; host or cells: HEK293, HeLa
The test is described as above. Particulars: 6 h treatment, 1 nM-10 μM; for Dmax: read-out: Dmax (%) maximum degradation observed. As to the method: as §1, §2
as §3, with “(5×10^5)” for “(3×10^5)”, “(1×10^6)” for “(0.5×10^6)”, “the desired concentration (1 nM-10 μM),” for “1 μM concentration,”, “6 h treatment time,” for “incubation for the desired time (0-8 h),”, “(20,000g,” for “(20,000 g,”, “(Invitrogen.” for “(Invitrogen).”
as §6

In test [5] the target is T3, Brd4 (L). Nature of the test: Concentration-dependent BET degradation, immunoblot, HEK293 cells. Particulars: 6 h treatment, 1 nM-10 μM; for Dmax: read-out: Dmax (%) maximum degradation observed. Here is the method:
as §1, §2
as §3, with “(5×10^5)” for “(3×10^5)”, “(1×10^6)” for “(0.5×10^6)”, “the desired concentration (1 nM-10 μM),” for “1 μM concentration,”, “6 h treatment time,” for “incubation for the desired time (0-8 h),”, “(20,000g,” for “(20,000 g,”, “(Invitrogen.” for “(Invitrogen).”
as §6

For test [6], the target named is T4, Brd4 (S). The test is described as above. To be noted: 6 h treatment, 1 nM-10 μM; for Dmax: read-out: Dmax (%) maximum degradation observed. As to the method:
as §1, §2
as §3, with “(5×10^5)” for “(3×10^5)”, “(1×10^6)” for “(0.5×10^6)”, “the desired concentration (1 nM-10 μM),” for “1 μM concentration,”, “6 h treatment time,” for “incubation for the desired time (0-8 h),”, “(20,000g,” for “(20,000 g,”, “(Invitrogen.” for “(Invitrogen).”
as §6

For test [7], the target named is T1, Brd2. Described as above. Also noted: endogenous in cells; host or cells: HEK293. Particulars: HEK293, Brd2, 6 h treatment, 1 nM-10 μM; for Dmax: read-out: Dmax (%) maximum degradation observed. Here is the method:
as §1, §2
as §3, with “(5×10^5)” for “(3×10^5)”, “(1×10^6)” for “(0.5×10^6)”, “the desired concentration (1 nM-10 μM),” for “1 μM concentration,”, “6 h treatment time,” for “incubation for the desired time (0-8 h),”, “(20,000g,” for “(20,000 g,”, “(Invitrogen.” for “(Invitrogen).”
as §6

The target in test [8] is T3, Brd4 (L). Nature of the test: Time-dependent BET degradation, immunoblot, HEK293 cells. On the set-up: dose or concentration left out as unconfirmed. To be noted: timecourse 0-8 h. As to the method:
as §1, §2, §3, §4, §5

Test [9] has as its target T4, Brd4 (S). The description is as above. To be noted: timecourse 0-8 h. On the set-up: dose or concentration left out as unconfirmed. As to the method:
as §1, §2, §3, §4, §5

In test [10] the target is T3, Brd4 (L). Nature of the test: Time-dependent BET degradation, immunoblot, HeLa cells. Particulars: timecourse 0-8 h. On the set-up: dose or concentration left out as unconfirmed. Here is the method:
as §1, §2, §3, §4, §5

For test [11], the target named is T4, Brd4 (S). The test is described as above. On the set-up: dose or concentration left out as unconfirmed. Particulars: timecourse 0-8 h. Here is the method: as §1, §2, §3, §4, §5
Test [12] addresses T1, Brd2. The description is as above. Also noted: endogenous in cells; host or cells: HeLa. Particulars: Brd2, 1 μM, timecourse 0-8 h. As to the method: as §1, §2, §3, §4, §5
In test [13] the target is T2, Brd3. Described as above. On the set-up: endogenous in cells; host or cells: HeLa. To be noted: Brd3, 1 μM, timecourse 0-8 h. Here is the method:
as §1, §2, §3, §4, §5

Bounds are passed on as bounds.

This is an account of results in US20210283139A1, “BIFUNCTIONAL MOLECULES FOR TARGETING UCHL5” (AMPHISTA THERAPEUTICS LTD, priority 2018, published 2021).

What is called Dmax is the greatest extent of degradation seen. The term DC50 denotes the midpoint of the concentration-degradation curve.

T1 sequence (P25440 whole entry): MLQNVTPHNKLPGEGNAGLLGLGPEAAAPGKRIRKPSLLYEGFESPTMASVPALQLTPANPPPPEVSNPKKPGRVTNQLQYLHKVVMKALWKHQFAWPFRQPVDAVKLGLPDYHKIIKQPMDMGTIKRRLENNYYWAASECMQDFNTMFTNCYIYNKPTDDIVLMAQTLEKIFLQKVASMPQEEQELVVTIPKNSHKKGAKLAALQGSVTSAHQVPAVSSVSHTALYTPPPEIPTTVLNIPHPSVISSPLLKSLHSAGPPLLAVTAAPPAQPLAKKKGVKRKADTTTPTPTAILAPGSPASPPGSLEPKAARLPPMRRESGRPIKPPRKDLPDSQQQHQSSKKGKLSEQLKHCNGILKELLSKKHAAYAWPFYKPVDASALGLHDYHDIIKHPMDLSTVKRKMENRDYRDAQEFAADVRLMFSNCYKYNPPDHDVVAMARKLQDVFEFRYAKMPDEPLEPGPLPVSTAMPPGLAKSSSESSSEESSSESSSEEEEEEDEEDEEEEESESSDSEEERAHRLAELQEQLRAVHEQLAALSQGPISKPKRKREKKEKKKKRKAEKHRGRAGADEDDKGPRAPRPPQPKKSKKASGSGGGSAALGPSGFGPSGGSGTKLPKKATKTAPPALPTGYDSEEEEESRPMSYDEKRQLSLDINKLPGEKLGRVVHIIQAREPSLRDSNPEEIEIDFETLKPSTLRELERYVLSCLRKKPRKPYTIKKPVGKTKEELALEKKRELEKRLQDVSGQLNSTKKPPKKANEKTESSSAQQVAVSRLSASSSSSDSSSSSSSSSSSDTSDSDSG
T2 sequence (Q15059 whole entry): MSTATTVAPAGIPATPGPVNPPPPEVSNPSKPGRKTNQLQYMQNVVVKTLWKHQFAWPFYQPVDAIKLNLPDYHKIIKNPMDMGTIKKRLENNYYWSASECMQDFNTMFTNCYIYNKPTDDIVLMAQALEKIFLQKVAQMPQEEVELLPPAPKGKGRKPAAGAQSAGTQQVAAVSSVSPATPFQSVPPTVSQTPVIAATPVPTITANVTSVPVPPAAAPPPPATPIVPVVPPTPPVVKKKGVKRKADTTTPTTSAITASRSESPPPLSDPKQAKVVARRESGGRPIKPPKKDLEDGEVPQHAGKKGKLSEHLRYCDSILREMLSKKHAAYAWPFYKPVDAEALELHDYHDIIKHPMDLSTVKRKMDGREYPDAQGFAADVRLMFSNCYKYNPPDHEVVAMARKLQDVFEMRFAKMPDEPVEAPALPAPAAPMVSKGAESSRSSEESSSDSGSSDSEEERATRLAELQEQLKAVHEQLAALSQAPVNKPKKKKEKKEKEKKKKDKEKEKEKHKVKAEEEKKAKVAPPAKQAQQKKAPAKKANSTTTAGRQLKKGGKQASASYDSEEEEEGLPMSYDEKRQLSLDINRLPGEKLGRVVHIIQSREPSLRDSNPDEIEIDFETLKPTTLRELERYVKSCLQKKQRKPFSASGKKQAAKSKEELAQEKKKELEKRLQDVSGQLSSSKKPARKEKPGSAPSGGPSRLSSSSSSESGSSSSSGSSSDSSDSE

With `CCCC(NC(=O)/C(C#N)=C/c1cccc(Br)n1)c1ccc(OCC=NOCC(=O)NCCOCCOCCOCCOCCOCCNC(=O)c2ccc3c(c2)[C@H](Nc2ccc(Cl)cc2)C[C@H](C)N3C(C)=O)cc1` (stereo partly drawn) [Example 05IB3], the Dmax at 1 µM at Brd2 [1] stood at 83%; on Brd3 [2] it was 100%; on Brd2 [12], 54%; on Brd3 [13] it was 100%. Also, the DC50 was 51 to 500 nM on Brd4 (L) [3]; ≤ 50 nM at Brd4 (S) [4]; ≤ 50 nM on Brd4 (L) [5]; ≤ 50 nM on Brd4 (S) [6]; 51 to 500 nM at Brd2 [7]. Also, the Dmax on Brd4 (L) [3] was ≥ 71%; on Brd4 (S) [4], ≥ 71%; at Brd4 (L) [5], ≥ 71%; at Brd4 (S) [6], ≥ 71%; on Brd2 [7] it was ≥ 71%; at Brd4 (L) [8] it was 96%. The greatest degradation seen (Dmax) on Brd4 (S) [9] came out at 100%; at Brd4 (L) [10] it was 79%; on Brd4 (S) [11] it was 100%.
`CCCC(NC(=O)/C(C#N)=C/c1cccc(Br)n1)c1ccc(OCCOCCOCCOCCOCCOCCOCCNC(=O)c2ccc(-c3ccc4c(c3)[C@H](Nc3ccc(Cl)cc3)C[C@H](C)N4C(C)=O)cc2)cc1` (stereo partly drawn) [Example 05IB6]: the Dmax at 1 µM at Brd2 [1] stood at 76%; on Brd3 [2], 74%; at Brd2 [12], 79%; on Brd3 [13], 90%. In addition, the DC50 is 51 to 500 nM on Brd4 (L) [3]; ≤ 50 nM on Brd4 (S) [4]; ≤ 50 nM on Brd4 (L) [5]; ≤ 50 nM on Brd4 (S) [6]; 51 to 500 nM at Brd2 [7]. The Dmax at Brd4 (L) [3] is ≥ 71%; at Brd4 (S) [4], ≥ 71%; at Brd4 (L) [5], ≥ 71%; at Brd4 (S) [6], ≥ 71%; at Brd2 [7], 26 to 50%; on Brd4 (L) [8] it was 100%. The Dmax came out at 97% at Brd4 (S) [9], 100% at Brd4 (L) [10] and 100% at Brd4 (S) [11].
For `CCCC(NC(=O)/C(C#N)=C/c1nccs1)c1ccc(OCCOCCOCCOCCOCCOCCOCCNC(=O)c2ccc(-c3ccc4c(c3)[C@H](Nc3ccc(Cl)cc3)C[C@H](C)N4C(C)=O)cc2)cc1` (stereo partly drawn) [Example 05IB9], the Dmax at 1 µM is 73% on Brd2 [1], 60% on Brd3 [2], 76% on Brd2 [12] and 80% on Brd3 [13]. In addition, the 50% degradation concentration (DC50) on Brd4 (L) [3], at Brd4 (S) [4], on Brd4 (L) [5], on Brd4 (S) [6] and at Brd2 [7] was ≤ 50 nM throughout. Also, the Dmax at Brd4 (L) [3] is ≥ 71%; on Brd4 (S) [4], ≥ 71%; at Brd4 (L) [5], ≥ 71%; at Brd4 (S) [6] it was ≥ 71%; on Brd2 [7] it was 51 to 70%; at Brd4 (L) [8], 96%. The results for the Dmax on Brd4 (S) [9], on Brd4 (L) [10] and on Brd4 (S) [11] were 96%, 100% and 100%, respectively.
